We go through seven molecules from publication PMC6705210, “Inhibition of HTLV-1 Infection by HIV-1 First- and Second-Generation Integrase Strand Transfer Inhibitors” (Frontiers in Microbiology, 2019).

Where two headings read alike, the source gives them in different places.

Data set [1] has as its target T1, HTLV-1 integrase (Human T-cell leukemia virus 1, UniProt P03362).
T1 construct: Full-length wild type HTLV-1 IN was recombinantly expressed, purified, and characterized; SUMO (pET28a-SUMO fusion) (N); made in house
The experiment in a line: In vitro HTLV-1 integrase strand transfer assay (concerted integration, agarose gel densitometry). The format is biochemical. To be noted: for Inhibition of enzymatic activity Hill slope: dose-response fit of strand transfer inhibition. The procedure: Donor DNA mimicking the U5 3′-processed LTR ends of the viral DNA copy was prepared by annealing oligonucleotides (Supplementary Table S1), in 100 mM Tris pH 7.4, 400 mM NaCl. The optimized conditions for the strand transfer reactions are as follows: a solution was prepared containing 73 mM PIPES pH 6.0, 175 mM NaCl, 16.7 mM MgCl2, 5.8 μM ZnCl2, 12.8 mM DTT, 0.53 μM donor DNA, and 0.8 μM HTLV-1 integrase. Following a 30 min room temperature incubation in the presence or absence of INSTIs in the final concentration of 5% DMSO, the reaction was initiated by addition of 300 ng of pGEM-9Zf(−) supercoiled plasmid DNA. The total volume of each reaction was 150 μL. Reactions were carried out at 37°C for 30 min and were processed as described previously ([Maertens et al., 2010]). All reactions were performed in these conditions unless otherwise stated in the Figure legend. Reactions that included B′γ were done with equimolar ratio of IN to B′γ. The precipitated DNA was resuspended in agarose loading dye and analyzed on a 1.5% agarose gel run in 1× TAE buffer and stained with ethidium bromide. Bands corresponding to products of concerted integration were quantified by densitometry in ImageLab 4.1 (Bio-Rad). All experiments were done in triplicate.
Quantified data points were fitted to a dose-response curve in Prism 7. Cumulative standard deviation for each drug was calculated as an average of the upper limit and lower limit values: […]

Data set [2] has as its system HIV-1. To be noted: read-out: HIV-1 antiviral activity EC50, cited from earlier work.
The subject of data set [3] is HTLV-1. Briefly: HTLV-1 infection of Jurkat cells by cell-to-cell transmission (co-culture with irradiated MT-2), proviral load by qPCR. The format is cell-based, Human T-cell lymphotropic virus type 1. To be noted: for EC50: read-out: Antiviral activity EC50 (HTLV-1). Here is the method:
(§1) Jurkat cells were pre-treated with increasing amounts of INSTI (0.2 pM–2 μM in DMSO), or the carrier (DMSO) for 24 h. MT-2 cells were resuspended to a concentration of 2 × 10^6 cells/mL and exposed to a sub-lethal dose of gamma-irradiation (40,000 Rad). Cells were resuspended in serum-free RPMI to a concentration of 2 × 10^6 cells/mL in the presence of drug, and 0.5 × 10^6 of each cell type were co-cultured for 18 h. Following co-culture, cells were washed in PBS and resuspended in 1 mL of depletion buffer (0.1% FBS, 2 mM EGTA, PBS) before gentle tumbling (1 h, 4°C) with 25 μL of anti-CD25 + magnetic beads (DynaBeads, Thermo Fisher Scientific) to deplete MT-2 cells. Following depletion, the unbound fraction, i.e., Jurkat cells were maintained in RPMI with the drug present for 16 days before genomic DNA harvest (DNeasy kit, Qiagen). All experiments were done in triplicate. Depletion of MT-2 cells was verified by FACS. For cellular toxicity measurements, Jurkat cells were grown in the presence of the INSTIs as described above. Viability was measured by live dead stain (Hoechst 33258) and analyzed by FACS.
Proviral load (PVL) was estimated as previously described ([Manivannan et al., 2016]; [Rowan et al., 2016]). Genomic DNA concentrations were measured by nanospectroscopy (DeNovix), and samples were diluted to 5 ng/μL for real-time PCR (qPCR) analysis. qPCR reactions were performed for both the HTLV-1 tax gene and the human GAPDH gene (Supplementary Table S2). Gene copy numbers were determined by comparison to standard curves generated from a clone with a known single integration site (clone 11.50, courtesy of Prof. Charles Bangham). PVL was calculated by comparison of tax and GAPDH copy numbers as a fraction, multiplied by 100 to generate a percentile value assuming a single copy of tax and two copies of GAPDH per infected cell ([Lairmore et al., 1989]). Alu-PCR was performed as described previously ([Alais et al., 2015]), with the modification that the nested PCR was also run as a qPCR using SYBR-green (primers used are shown in Supplementary Table S2). Integrated provirus copy numbers were normalized to GAPDH, and DMSO treated HTLV-1 infected Jurkat cells were arbitrarily set to 100%. Averages and standard deviations of three independent experiments are shown. P-values were calculated using the student’s t-test.
(In general: Quantitative PCR measures a nucleic acid by following its amplification.)

The nature of data set [4]: Cellular toxicity in Jurkat cells (live dead stain Hoechst 33258, FACS). The format is cell-based. To be noted: human. Here is the method:
as §1, with “MT-2” for “Jurkat cells were pre-treated with increasing amounts of INSTI (0.2 pM–2 μM in DMSO), or the carrier (DMSO) for 24 h. MT-2”

In data set [5] the test system is HTLV-1. Details: method as in Pasquier et al., 2018. To be noted: ref Pasquier et al., 2018, cited from earlier work.
[6] abbreviates: HTLV-1 IN 0.8 μM, concerted integration product.
Where [7] appears, read: HTLV-1 IN 0.8 μM, concerted integration product, triplicate, read-out: Inhibition of enzymatic activity IC50.
Where [8] appears, read: Jurkat cells co-cultured with irradiated MT-2, PVL 16 days post-infection.
The mark [9] stands for this setting: Primate T-lymphotropic virus 1, Jurkat, light or radiation study, 384 h, Jurkat cells co-cultured with irradiated MT-2, PVL 16 days post-infection.

T1 sequence (P03362 1168-1462): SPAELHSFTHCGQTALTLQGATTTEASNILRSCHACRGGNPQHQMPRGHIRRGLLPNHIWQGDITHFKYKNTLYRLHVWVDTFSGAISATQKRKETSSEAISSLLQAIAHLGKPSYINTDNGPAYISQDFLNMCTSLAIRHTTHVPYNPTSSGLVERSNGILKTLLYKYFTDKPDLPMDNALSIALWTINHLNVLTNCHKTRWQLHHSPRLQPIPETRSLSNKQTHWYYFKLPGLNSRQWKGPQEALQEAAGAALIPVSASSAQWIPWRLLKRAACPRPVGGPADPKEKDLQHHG

For orientation: IC50 means the concentration that gives 50% inhibition. As usually defined, the EC50 is the midpoint of the concentration-response curve. As for `Cn1c(N2CCCCS2(=O)=O)nc(C(=O)NCc2ccc(F)cc2)c(O)c1=O` [BMS-707035], the “Inhibition of enzymatic activity IC95” value in data set [1] (setting [6]) stood at 12200 ± 2900 nM. The IC50 in data set [1] (setting [7]) stood at 350 ± 74 nM. Also, the “Inhibition of enzymatic activity Hill slope” value in data set [1] stood at 0.83. For the same molecule, in data set [2] (ref c), the EC50 was 2.5 nM.

By CC50 is commonly meant the concentration giving 50% cytotoxicity. `O=C(NCc1c(F)cc(F)cc1F)c1cn2c(c(O)c1=O)C(=O)N1[C@H]3CC[C@H](C3)O[C@@H]1C2` [Bictegravir, bictegravir]: the “Inhibition of enzymatic activity IC95” value in data set [1] (setting [6]) came out at 2090 ± 437 nM. Moreover, in data set [1] (setting [7]), the IC50 was found to be 180 ± 29 nM. Also, the “Inhibition of enzymatic activity Hill slope” value in data set [1] is 1.2. Also, the “activity relative to elvitegravir” value in data set [1] (in vitro assays, versus elvitegravir) is roughly 55%. Moreover, the “fold higher activity than raltegravir or elvitegravir, respectively” value in data set [3] (HTLV-1 cell-to-cell infection model, versus raltegravir or elvitegravir) was 20–30 fold. Besides, the “Antiviral activity EC95 (HTLV-1)” value in data set [3] (setting [8]) was found to be 31.8 ± 18.2 nM. Moreover, the EC50 is 0.302 ± 0.173 nM in data set [3] (setting [8]), 0.3 ± 0.17 nM in data set [3] (setting [9]) and 1.6 ± 0.4 nM in data set [2] (ref a). Also, the “more potent than TDF in blocking HTLV-1 infection” value in data set [3] (versus TDF) is recorded as roughly 60. In addition, the CC50 in data set [4] was greater than 20000 nM.

As for `C[C@@H]1CCO[C@H]2Cn3cc(C(=O)NCc4ccc(F)cc4F)c(=O)c(O)c3C(=O)N12` [Dolutegravir, dolutegravir], the “Inhibition of enzymatic activity IC95” value in data set [1] (setting [6]) amounted to 3020 ± 485 nM. In data set [1] (setting [7]), the half-inhibitory concentration (IC50) is 260 ± 59 nM. For the same molecule, the “Inhibition of enzymatic activity Hill slope” value in data set [1] came to 1.2. Further, the EC50 in data set [2] (ref a) is 1.4 ± 0.3 nM.

Turning to `COc1cc2c(cc1Cc1cccc(Cl)c1F)c(=O)c(C(=O)O)cn2[C@H](CO)C(C)C` [Elvitegravir, elvitegravir], in data set [1], the IC50 came out at 100 ± 16 nM and the “Inhibition of enzymatic activity Hill slope” value came to 1.0. Besides, in data set [1] (setting [6]), the “Inhibition of enzymatic activity IC95” value was 1900 ± 304 nM. In data set [3] (setting [8]), the “Antiviral activity EC95 (HTLV-1)” value is 1270 ± 735 nM. Also, the EC50 in data set [3] (setting [9]) was determined as 9.57 ± 5.54 nM. Besides, in data set [4], the CC50 is greater than 20000 nM.

Take `Cc1nnc(C(=O)NC(C)(C)c2nc(C(=O)NCc3ccc(F)cc3)c(O)c(=O)n2C)o1` [Raltegravir, raltegravir]: in data set [1], the midpoint of inhibition, the IC50, lay at 530 ± 102 nM and the “Inhibition of enzymatic activity Hill slope” value turned out to be 0.73. The “Inhibition of enzymatic activity IC95” value in data set [1] (setting [6]) was found to be 29920 ± 5750 nM. Further, in data set [3] (setting [8]), the “Antiviral activity EC95 (HTLV-1)” value was 1020 ± 675 nM. Moreover, the EC50 in data set [3] (Primate T-lymphotropic virus 1, Jurkat, light or radiation study, 384 h) is 6.42 ± 4.24 nM. The CC50 in data set [4] (Jurkat cells, read-out: CC50) is greater than 20000 nM. Besides, in data set [2] (ref a), the EC50 is 9.4 ± 1.4 nM.

Turning to `CC(C)OC(=O)OCOP(=O)(CO[C@H](C)Cn1cnc2c(N)ncnc21)OCOC(=O)OC(C)C.O=C(O)/C=C/C(=O)O` [TDF, tenofovir disproxil fumarate], in data set [3] (setting [8]), the EC50 came to 17.8 ± 7.16 nM. Moreover, the HTLV-1 infection blocked entry in data set [5] (at concentrations of 10 μM) is given as “about 50%”.

As for `Cc1cn([C@H]2C[C@H](N=[N+]=[N-])[C@@H](CO)O2)c(=O)[nH]c1=O` [zidovudine], in data set [5] (at 50 μM concentration), the “inhibition of HTLV-1 infection” value is 10–20%.
